Structures are written as SMILES.

The results in this text go back to patent publication US11623014B2, “Mini-gastrin analogue, in particular for use in CCK2 receptor positive tumour diagnosis and/or treatment” (Paul Scherrer Institut, priority 2013, dated 2023).

Data set [1] can be described thus: Stability of 177Lu-labelled mini-gastrin analogues in human serum/plasma, metabolites by HPLC. Type of data set: in vitro ADME. As to conditions: human serum, radio-labelled with 177Lu, compared with PP-F11, PP-F10N and PP-F10. The procedure:
12 MBq of the radiolabelled compound was incubated in 2 mL fresh human plasma. A 40 μL probe was taken after 0, 1, 2, 18, 24, 48 and 72 h and added 200 μL (50% Methanol and 50% Acetonitril) in a Mini-UniPrep Filter. The solution is filtered after vortexing. 40 μL of the filtered solution is analyzed by HPLC.

Data set [2] has as its system human CCK-2 receptor transfected A431 cells. The data set can be described thus: Biodistribution studies in CD1 nu/nu mice bearing CCK-2 receptor positive and mock A431 tumours. Format: in vivo. The procedure:
PP-F11N has been investigated according to the CD1 nu/nu mice model. […] FIG. 2 illustrates the biodistribution of PP-F11, PP-F11N and oxidized PP-F11 ox (oxidized PP-F11) after 4 hours in the athymic CD1 nu/nu mice model. Tumour positive: with human CCK-2 receptor transfected A431 cells on one side of the mouse; tumor negative: CCK-2 receptor negative A431 cells on the other side of the mouse. The effect of the higher tumor uptake by the exchange of methionine with norleucine is specifically apparent with compounds having the DGlu6 sequence, different from compounds having a sequence with DGLn6 which is referred to as PP-F10.
CD1 nu/nu mice were injected with 5×10^6 A431 cells. CCK-2 receptor positive A431 cells' were injected into one flank and mock cells on the other as an unspecific control. The tumors reach a weight of about 80 to 120 mg after about 10 days. 150-200 kBq (5 pmol) of the radiolabelled peptides were injected into the tail vein. Mice were killed by CO2 asphyxiation after defined time points post injection. The organs were dissected, weighted and the activity was measured. The % injected activity per gram (% i.A./g) was calculated. The animal experiments were approved by the local animal welfare committee and performed according to national regulations.

[3] abbreviates: biodistribution after 4 hours, athymic CD1 nu/nu mice.

Turning to `CCCC[C@H](NC(=O)[C@H](Cc1c[nH]c2ccccc12)NC(=O)CNC(=O)[C@H](Cc1ccc(O)cc1)NC(=O)[C@H](C)NC(=O)[C@@H](CCC(=O)O)NC(=O)[C@@H](CCC(=O)O)NC(=O)[C@@H](CCC(=O)O)NC(=O)[C@@H](CCC(=O)O)NC(=O)[C@@H](CCC(=O)O)NC(=O)[C@@H](CCC(=O)O)NC(=O)CN1CCN(CC(=O)O)CCN(CC(=O)O)CCN(CC(=O)O)CC1)C(=O)N[C@@H](CC(=O)O)C(=O)N[C@@H](Cc1ccccc1)C(N)=O` [PP-F11N], the pharmacologic stability entry in data set [1] was “highest pharmacologic stability of all probands”. In data set [2] (setting [3]), the “accumulation in the kidneys” value was “very few” and the tumor-noise ratio entry was “very favorable”. For the same compound, the tumor uptake result in data set [2] (biodistribution after 4 hours, athymic CD1 nu/nu mice, CCK-2 receptor positive A431 tumour) was “significant higher”. Also, in data set [2] (mouse, in vivo), the tumor-to-kidney entry was “best”.
